For ten compounds, IC50 results are on record in patent US11780830B2, “Triazolone derivatives or salts thereof and pharmaceutical compositions comprising the same” (YUHAN CORPORATION, priority 2018, dated 2023).

Counter-ions that a name gives are not always drawn.

What all share (format): biochemical
For one assay, the target named is T1, recombinant human VAP-1 (Homo sapiens, UniProt Q16853).
T1 construct: purchased R&D systems
T1 sequence (Q16853 1-763): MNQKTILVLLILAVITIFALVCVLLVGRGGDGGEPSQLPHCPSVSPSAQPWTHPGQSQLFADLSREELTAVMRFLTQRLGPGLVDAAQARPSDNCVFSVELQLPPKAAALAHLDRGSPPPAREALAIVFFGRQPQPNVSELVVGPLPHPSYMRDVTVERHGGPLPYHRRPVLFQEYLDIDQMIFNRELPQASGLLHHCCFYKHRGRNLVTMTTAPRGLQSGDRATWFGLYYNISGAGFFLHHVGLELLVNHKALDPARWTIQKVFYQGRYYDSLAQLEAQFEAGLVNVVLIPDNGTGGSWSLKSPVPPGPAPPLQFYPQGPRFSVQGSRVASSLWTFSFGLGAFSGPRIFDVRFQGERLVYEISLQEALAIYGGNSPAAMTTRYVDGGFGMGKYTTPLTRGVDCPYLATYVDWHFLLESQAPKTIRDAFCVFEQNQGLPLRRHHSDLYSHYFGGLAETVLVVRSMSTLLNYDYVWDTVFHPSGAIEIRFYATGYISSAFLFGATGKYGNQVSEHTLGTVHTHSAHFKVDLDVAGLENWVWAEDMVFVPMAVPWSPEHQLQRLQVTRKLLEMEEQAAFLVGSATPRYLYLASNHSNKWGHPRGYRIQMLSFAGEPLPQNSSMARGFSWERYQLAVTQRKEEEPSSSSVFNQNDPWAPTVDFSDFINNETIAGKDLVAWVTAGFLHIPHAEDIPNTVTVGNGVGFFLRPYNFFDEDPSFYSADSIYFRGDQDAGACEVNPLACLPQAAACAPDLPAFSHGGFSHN
The assay can be described thus: Activity on recombinant human VAP-1, HRP-coupled Amplex Red hydrogen peroxide assay. The note with it: substrate 1 mM benzylamine; compound incubated with enzyme at 37° C. for 30 minutes; pH 7.4; read-out: Inhibitory Activity (IC50, nM) human VAP-1. In a few lines: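 H2O2 generation from 1 mM benzylamine was coupled via 1 U/mL HRP to 200 uM Amplex Red; inhibitors, serially diluted 1:3 over 8 points with under 1% final DMSO, had been preincubated 30 min at 37 °C. IC50 from percentage drop in rate.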

The target in assay [1] is T2, recombinant human MAO-A (monoamine oxidase-A) (Homo sapiens, UniProt P21397).
T2 construct: purchased Sigma-Aldrich
T2 sequence (P21397 1-527): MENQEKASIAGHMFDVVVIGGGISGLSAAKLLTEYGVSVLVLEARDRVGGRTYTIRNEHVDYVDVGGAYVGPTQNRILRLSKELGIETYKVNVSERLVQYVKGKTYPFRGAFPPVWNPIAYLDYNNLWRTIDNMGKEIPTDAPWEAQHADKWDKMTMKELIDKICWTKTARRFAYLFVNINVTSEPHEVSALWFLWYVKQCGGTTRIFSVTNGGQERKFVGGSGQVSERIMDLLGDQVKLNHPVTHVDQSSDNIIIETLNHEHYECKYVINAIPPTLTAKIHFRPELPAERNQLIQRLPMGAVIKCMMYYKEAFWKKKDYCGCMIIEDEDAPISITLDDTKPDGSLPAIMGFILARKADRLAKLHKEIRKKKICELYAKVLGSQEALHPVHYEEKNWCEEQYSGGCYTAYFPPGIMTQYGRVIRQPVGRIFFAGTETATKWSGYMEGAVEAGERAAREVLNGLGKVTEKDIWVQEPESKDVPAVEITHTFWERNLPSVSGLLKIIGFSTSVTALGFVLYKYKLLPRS
The assay can be described thus: Activity on recombinant human MAO-A, method similar to the VAP-1 assay. Conditions: substrate 0.5 mM tyramine; read-out: Inhibitory Activity (IC50, nM) MAO-A. In a few lines: (§1)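 First, serially diluted compounds were incubated with recombinant enzyme in 50 mM sodium phosphate, pH 7.4, for 30 min at 37° C. Next, Amplex Red (200 uM), HRP (1 U/mL) and tyramine (0.5 mM, MAO-A) or benzylamine (1 mM, MAO-B) were added. Then fluorescence was monitored over 1-2 h and IC50 fitted.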

Assay [2] deals with T3, recombinant human MAO-B (monoamine oxidase-B) (Homo sapiens, UniProt P27338).
T3 construct: purchased Sigma-Aldrich
T3 sequence (P27338 1-520): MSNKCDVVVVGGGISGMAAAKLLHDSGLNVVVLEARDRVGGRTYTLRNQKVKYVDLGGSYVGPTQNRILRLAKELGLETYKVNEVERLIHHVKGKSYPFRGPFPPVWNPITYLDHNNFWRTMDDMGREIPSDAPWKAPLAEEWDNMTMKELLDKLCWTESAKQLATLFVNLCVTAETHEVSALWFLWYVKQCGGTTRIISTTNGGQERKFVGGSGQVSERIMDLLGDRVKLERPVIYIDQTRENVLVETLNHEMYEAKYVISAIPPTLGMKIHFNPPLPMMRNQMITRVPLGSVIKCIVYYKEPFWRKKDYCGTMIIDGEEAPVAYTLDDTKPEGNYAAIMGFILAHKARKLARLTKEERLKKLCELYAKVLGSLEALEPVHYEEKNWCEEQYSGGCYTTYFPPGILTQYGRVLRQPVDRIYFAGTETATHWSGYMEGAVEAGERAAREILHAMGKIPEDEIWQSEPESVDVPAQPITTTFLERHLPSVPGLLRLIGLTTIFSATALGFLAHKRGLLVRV
The assay can be described thus: Activity on recombinant human MAO-B, method similar to the VAP-1 assay. Conditions: substrate 1 mM benzylamine; read-out: Inhibitory Activity (IC50, nM) MAO-B. In outline: as §1

Assay [3] deals with T4, recombinant human DAO (diamine oxidase) (Homo sapiens, UniProt P19801).
T4 construct: purchased R&D systems
T4 sequence (P19801 20-751): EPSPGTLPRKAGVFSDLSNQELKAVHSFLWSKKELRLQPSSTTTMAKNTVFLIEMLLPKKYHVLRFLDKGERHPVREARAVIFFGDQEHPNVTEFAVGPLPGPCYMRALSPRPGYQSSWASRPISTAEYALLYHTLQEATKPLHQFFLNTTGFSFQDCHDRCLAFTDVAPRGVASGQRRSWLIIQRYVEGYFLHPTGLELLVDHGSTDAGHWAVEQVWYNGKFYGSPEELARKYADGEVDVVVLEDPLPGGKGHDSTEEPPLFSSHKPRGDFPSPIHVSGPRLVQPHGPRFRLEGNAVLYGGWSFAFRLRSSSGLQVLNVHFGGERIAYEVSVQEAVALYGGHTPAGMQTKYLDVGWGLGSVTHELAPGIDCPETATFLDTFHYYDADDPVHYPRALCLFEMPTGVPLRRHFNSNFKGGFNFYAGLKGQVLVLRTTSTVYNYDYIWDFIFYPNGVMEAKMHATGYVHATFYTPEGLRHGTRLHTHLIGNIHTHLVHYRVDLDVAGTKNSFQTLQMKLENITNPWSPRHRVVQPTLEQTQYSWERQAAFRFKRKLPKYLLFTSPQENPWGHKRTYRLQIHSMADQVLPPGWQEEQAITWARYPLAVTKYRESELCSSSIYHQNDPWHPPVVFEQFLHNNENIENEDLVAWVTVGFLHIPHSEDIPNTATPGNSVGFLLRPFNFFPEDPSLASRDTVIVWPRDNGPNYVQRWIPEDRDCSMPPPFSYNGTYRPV
The assay can be described thus: Activity on recombinant human DAO, method similar to the VAP-1 assay. Conditions: substrate 1 mM putrescine; read-out: Inhibitory Activity (IC50, nM) DAO. In a few lines:
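Inhibition of recombinant human diamine oxidase (DAO, R&D systems) was assessed by the same approach as the VAP-1 assay, using 1 mM putrescine as substrate. Hydrogen peroxide formed was detected through an HRP-coupled Amplex Red reaction yielding fluorescent resorufin, read at 544 nm excitation and 590 nm emission. IC50 values came from four-parameter logistic fitting in GraphPad Prism.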

By IC50 is commonly meant the midpoint of a concentration-inhibition curve. With `NC/C(=C\F)Cn1ncn(Cc2ccc(C#Cc3ccc4c(n3)OCCN4)s2)c1=O` [Example 136, 2-[(E)-2-(aminomethyl)-3-fluoro-allyl]-4-[[5-[2-(2,3-dihydro-1H-pyrido[2,3-b][1,4]oxazin-6-yl)ethynyl]-2-thienyl]methyl]-1,2,4-triazol-3-one hydrochloride], the IC50 came out at 1.5 nM at recombinant human VAP-1, 20000 nM in assay [1], 640 nM in assay [2] and 790 nM in assay [3].

Regarding `CC(=O)c1ccc(-c2ccc(Cn3cnn(C/C(=C/F)CN)c3=O)s2)s1` [Example 155, 4-[(5′-acetyl-2,2′-bithiophen-5-yl)methyl]-2-[(2E)-2-(aminomethyl)-3-fluoroprop-2-en-1-yl]-2,4-dihydro-3H-1,2,4-triazol-3-one], the half-maximal inhibitory concentration (IC50) at recombinant human VAP-1 was 0.4 nM; in assay [1] it was > 100000 nM; in assay [2] it was 470 nM; in assay [3], 950 nM.

`NC/C(=C\F)Cn1ncn(Cc2ccc(-c3ccc(N4CCCCC4)nc3)s2)c1=O` [Example 52, 2-[(2E)-2-(aminomethyl)-3-fluoroprop-2-en-1-yl]-4-(5-[6-(piperidin-1-yl)pyridin-3-yl]thiophen-2-ylmethyl)-2,4-dihydro-3H-1,2,4-triazol-3-one hydrochloride]: the 50% inhibitory concentration (IC50) is 0.8 nM on recombinant human VAP-1, > 100000 nM in assay [1], 640 nM in assay [2] and 170 nM in assay [3].

In the case of `NC/C(=C\F)Cn1ncn(Cc2ccc(-c3ccc(S(=O)(=O)N4CCOCC4)cc3)s2)c1=O` [Example 29, 2-[(2E)-2-(aminomethyl)-3-fluoroprop-2-en-1-yl]-4-(5-[4-(morpholin-4-ylsulfonyl)phenyl]thiophen-2-ylmethyl)-2,4-dihydro-3H-1,2,4-triazol-3-one hydrochloride], the 50% inhibitory concentration (IC50) on recombinant human VAP-1 was 1.4 nM; in assay [1] it was > 100000 nM; in assay [2], > 10000 nM; in assay [3], 150 nM.

On to `COc1cc(-c2ccc(Cn3cnn(C/C(=C/F)CN)c3=O)s2)cc(OC)c1OC` [Example 17, 2-[(2E)-2-(aminomethyl)-3-fluoroprop-2-en-1-yl]-4-[5-(3,4,5-trimethoxyphenyl)thiophen-2-yl]methyl-2,4-dihydro-3H-1,2,4-triazol-3-one hydrochloride], for which the IC50 at recombinant human VAP-1 was 1.2 nM; in assay [1], > 100000 nM; in assay [2], 1000 nM; in assay [3], 620 nM.

Take `NC/C(=C/F)Cn1ncn(Cc2ccc(-c3ccc4nonc4c3)s2)c1=O` [Example 61, 2-[(2Z)-2-(aminomethyl)-3-fluoroprop-2-en-1-yl]-4-[5-(2,1,3-benzooxadiazol-5-yl)thiophen-2-yl]methyl-2,4-dihydro-3H-1,2,4-triazol-3-one hydrochloride]: the IC50 was 1.1 nM at recombinant human VAP-1, 16000 nM in assay [1], 10.1 nM in assay [2] and < 100 nM in assay [3].

For `NC/C(=C\F)Cn1ncn(Cc2ccc(-c3ccc(CO)cc3)s2)c1=O` [Example 169, 2-[(2E)-2-(aminomethyl)-3-fluoroprop-2-en-1-yl]-4-({5-[4-(hydroxymethyl)phenyl]thiophen-2-yl}methyl)-2,4-dihydro-3H-1,2,4-triazol-3-one], the 50% inhibitory concentration (IC50) is 3.3 nM at recombinant human VAP-1, > 100000 nM in assay [1], 930 nM in assay [2] and 12000 nM in assay [3].

In the case of `NC/C(=C/F)Cn1ncn(Cc2ccc(-c3ccc4c(c3)OCO4)s2)c1=O` [Example 60, 2-[(2Z)-2-(aminomethyl)-3-fluoroprop-2-en-1-yl]-4-[5-(1,3-benzodioxol-5-yl)thiophen-2-yl]methyl-2,4-dihydro-3H-1,2,4-triazol-3-one hydrochloride], the IC50 was 1.8 nM on recombinant human VAP-1, > 10000 nM in assay [1], < 100 nM in assay [2] and 3000 nM in assay [3].

As to `NC/C(=C\F)Cn1ncn(Cc2ccc(-c3ccc4c(c3Cl)NC(=O)CO4)s2)c1=O` [Example 95, 6-[5-[[1-[(E)-2-(aminomethyl)-3-fluoro-allyl]-5-oxo-1,2,4-triazol-4-yl]methyl]-2-thienyl]-5-chloro-4H-1,4-benzoxazin-3-one hydrochloride], the IC50 at recombinant human VAP-1 worked out at 0.25 nM; in assay [1], 25000 nM; in assay [2], 370 nM; in assay [3] it was 240 nM.

In the case of `CN1C(=O)CCc2cc(-c3ccc(Cn4cnn(C/C(=C/F)CN)c4=O)s3)ccc21` [Example 79, 6-[5-(1-[(2E)-2-(aminomethyl)-3-fluoroprop-2-en-1-yl]-5-oxo-1,5-dihydro-4H-1,2,4-triazol-4-ylmethyl)thiophen-2-yl]-1-methyl-3,4-dihydroquinolin-2(1H)-one hydrochloride], the concentration for half-maximal inhibition (IC50) at recombinant human VAP-1 is 0.1 nM; in assay [1] it was > 100000 nM; in assay [2], 1900 nM; in assay [3] it was 210 nM.
